Assay results taken from PubChem BioAssay (NCI).
Several values for one entry are separate records, joined by “and”; a condition that tells them apart may be missing. Identical values can stand only once.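 Step 1: Grow cells in 96-well plates. Step 2: Expose to compound for 48 hours at 5 concentrations. Step 3: Interpolate endpoints linearly; if unreached, use highest concentration. GI50 = concentration required for 50% inhibition of growth. TGI marks complete inhibition of growth.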

What was measured:
Assay in all cases: DTP human tumour cell line panel, 48 h
[1] = tested on: 786-0 renal
[2] = tested on: CCRF-CEM leukemia
[3] = tested on: COLO 205 colon
[4] = tested on: HS 578T breast
[5] = tested on: KM12 colon
[6] = tested on: LOX IMVI melanoma
[7] = tested on: MDA-N
[8] = tested on: OVCAR-4 ovarian
[9] = tested on: SF-295 CNS
[10] = tested on: SNB-75 CNS
[11] = tested on: T-47D breast

Row | SMILES | TGI [1] | TGI [2] [µM] | TGI [3] [µM] | TGI [4] [µM] | TGI [5] [µM] | TGI [6] [µM] | TGI [7] [µM] | TGI [8] | TGI [9] | TGI [10] | TGI [11] [µM] | GI50 [6] | GI50 [8]
1 | O=C(/C=C\c1ccccc1)Oc1ccc(/C=C2\CCC/C(=C\c3ccc(OC(=O)/C=C\c4ccccc4)cc3)C2=O)cc1 | > 100 µM | > 100 | > 100 | > 100 | > 100 | > 100 | > 100 | > 100 µM | > 100 µM | > 100 µM | > 100 | – | –
2 | CC(C)Oc1cccc(N2C(CCc3c[nH]c4ccc(Br)cc34)=NS(=O)(=O)c3cnccc32)c1 | > 100 µM | > 100 | 41.9 | > 100 | > 100 | > 100 | > 100 | > 100 µM | > 100 µM | > 100 µM | > 100 | – | –
3 | O=c1c2ccc(Cl)cc2oc2c(CSc3ccccc3)cccc12 | > 100 µM | > 100 | > 100 | > 100 | > 65.3 | > 91.9 | > 100 | > 100 µM | > 100 µM | > 74.5 µM | > 100 | – | –
4 | O=C(O)CCCc1ccc2c(c1)C(C(=O)O)CC2 (stereo not drawn) | > 100 µM | > 100 | > 100 | > 100 | > 100 | > 100 | > 100 | > 100 µM | > 100 µM | > 100 µM | > 100 | – | –
5 | CN(C)c1cccc2c(S(=O)(=O)NCCN)cccc12 | > 100 µM | > 100 | > 100 | > 100 | > 100 | > 100 | > 100 | > 100 µM | > 100 µM | 64.1 µM | > 100 | – | –
6 | CC1(C)C(=O)/C(=C/c2ccccc2)C(C)(C)C1(C)C | > 100 µM | > 71.5 | > 100 | > 100 | > 100 | > 100 | > 100 | > 100 µM | > 100 µM | > 100 µM | > 100 | – | –
7 | COc1ccc(C2C(=O)c3ccc(OC)cc3OC2c2cccnc2)cc1 (stereo not drawn) | > 100 µM | > 100 | > 100 | > 100 | > 100 | > 100 | > 100 | > 100 µM | > 100 µM | > 100 µM | > 100 | – | –
8 | CC1=NC(=N)N=C(C)C1N=Nc1ccc2nc(C)[nH]c2c1 (stereo not drawn) | > 100 µM | > 100 | > 100 | > 100 | > 100 | > 100 | > 100 | > 100 µM | > 100 µM | > 100 µM | > 100 | – | –
9 | Cc1ccc(S(=O)(=O)NC(=O)Nc2ccc(C(=O)O)cc2)cc1 | > 100 µM | > 100 | > 100 | > 100 | > 100 | > 100 | > 100 | > 100 µM | > 100 µM | > 100 µM | > 100 | – | –
10 | O=C(OCCN=c1c2ccccc2ccc2ccccc12)c1cc([N+](=O)[O-])cc([N+](=O)[O-])c1 | > 100 µM | > 100 | > 100 | > 100 | > 100 | > 100 | > 100 | > 100 µM | > 100 µM | > 100 µM | > 100 | – | –
11 | CC(C)CNP(=O)(NCC(C)C)Oc1ccc(CC(NC(=O)OCc2ccccc2)C(=O)OCc2ccccc2)cc1 (stereo not drawn) | 28.9 µM | 32.8 | 35.4 | 85.8 | 38.3 | 32.5 | 36 | 36.5 µM | 98.4 µM | 39.1 µM | 33.5 | – | –
12 | Cc1cc2nc(N3C(=O)/C(=C/Cc4ccco4)N=C3c3ccccc3)sc2cc1C | 96.6 µM | 28.1 | > 100 | > 100 | > 100 | > 100 | 30 | > 100 µM | > 100 µM | 59.9 µM | > 100 | – | –
13 | CC[C@]1(c2ccc3c(c2)OCO3)C=[N+]([O-])O[C@H](OC2CCCC2(c2ccccc2)c2ccccc2)[C@@H]1OC(C)=O (stereo partly drawn) | 3.77 µM | > 64.6 | 5.07 | > 100 | 3.62 | > 22.4 | > 30.2 | 10.1 µM | 3.2 µM | 5.93 µM | 10.2 | – | –
14 | O=C(Nc1cccc2ccccc12)c1cc2ccccc2oc1=O | 50.3 µM | > 100 | > 100 | > 100 | > 100 | > 100 | > 100 | > 100 µM | – | > 100 µM | > 100 | – | –
15 | O=C1/C(=C\c2cccc(Oc3ccccc3)c2)SC(c2ccccc2)N1c1cc(Cl)ccc1Cl (stereo not drawn) | 76.5 µM | 3.62 | > 100 | 75.9 | > 100 | 38.2 | 45.5 | > 100 µM | > 100 µM | > 100 µM | > 100 | – | –
16 | C[n+]1c2ccccc2n2c3ccccc3c(NCCCn3ccnc3)c(C#N)c21 | 10.6 µM | – | 4.4 | 6.78 | 17.7 | 2.51 | 9.82 | 7.42 µM | 17.4 µM | 4.66 µM | > 19.6 | – | –
17 | COc1ccc(S(=O)(=O)NC(CCC(=O)NC(N)=O)C(=O)NC(N)=O)cc1 (stereo not drawn) | > 100 µM | > 100 | > 100 | > 100 | > 100 | > 100 | > 100 | > 100 µM | > 100 µM | > 100 µM | > 100 | – | –
18 | CC1(C)CCC[C@@]2(C)C1CC[C@@]1(CO)O[C@H](C3=CC(=O)OC3O)C[C@H]12 (stereo partly drawn) | 38.6 µM | 10 | 23.2 | 38.4 | 36.3 | 3.42 | 25.8 | 35.2 µM | 50.5 µM | 29.2 µM | 25.8 | – | –

Row | SMILES | TGI [1] | TGI [2] [µM] | TGI [3] [µM] | TGI [4] [µM] | TGI [5] [µM] | TGI [6] [µM] | TGI [7] [µM] | TGI [8] | TGI [9] | TGI [10] | TGI [11] [µM] | GI50 [6] | GI50 [8]
19 | NC(=O)CSc1nc2ccccc2c(=O)n1N | > 100 µM | – | > 100 | > 100 | > 100 | > 100 | > 100 | > 100 µM | > 100 µM | > 100 µM | > 100 | – | –
20 | CCNC(=S)N/N=C(/C)c1cccc(/C(C)=N\NC(=S)NCC)n1 | > 100 µM | > 19.1 | > 23.5 | > 96.6 | > 51.1 | 35.8 | > 45.8 | > 100 µM | > 38.8 µM | > 73.2 µM | > 45.4 | – | –
21 | Cc1n[nH]c(=O)n1-n1cccc1 | > 100 µM | > 100 | > 100 | > 100 | > 100 | > 100 | > 100 | > 100 µM | > 100 µM | > 100 µM | > 100 | – | –
22 | Cc1nnc(SCc2nc(C#N)c(C#N)nc2CSc2nnc(C)s2)s1 | 28.8 µM | – | 25.5 | > 59.4 | 37 | 23.3 | 49.9 | 31.5 µM | > 100 µM | 41.1 µM | 17.3 | – | –
23 | COc1ccccc1N=Nc1c(O)ccc2ccccc12 | 26.7 µM and 40.3 µM | > 100 | > 100 | > 100 | > 100 | > 100 | > 100 | 62.9 µM and 95.2 µM | 48.3 µM and 78.2 µM | 41.8 µM and 39.7 µM | > 100 | 25.1 µM and 55.7 µM | 10.2 µM and 35.4 µM
24 | Cc1ccc(C(=O)Nc2ccc(CP(=O)(O)O)cc2CP(=O)(O)O)cc1N | > 100 µM | > 100 | > 100 | > 100 | > 100 | > 100 | > 100 | > 100 µM | > 100 µM | > 100 µM | > 100 | – | –
25 | Nc1c(C(=O)O)c2ccc([N+](=O)[O-])cc2c(=O)n1-c1nc2ccccc2s1 | > 100 µM | > 100 | > 100 | > 100 | > 100 | > 100 | > 100 | > 100 µM | > 100 µM | > 100 µM | > 100 | – | –
26 | COc1cc2c(cc1O)C(Cc1ccc(OCc3ccccc3)c(OCc3ccccc3)c1)N(C(=O)NCCc1ccccc1)CC2 (stereo not drawn) | > 100 µM | > 100 | > 100 | > 100 | > 100 | > 100 | > 100 | > 100 µM | > 100 µM | > 100 µM | > 100 | – | –
27 | O=C1Nc2noc(=O)nc2NO1 | > 200 µM | > 200 | > 200 | > 200 | > 200 | > 200 | > 200 | > 200 µM | > 200 µM | > 200 µM | > 200 | – | –
28 | CCCCCCCCCCCCCCCCNc1nc(=O)n(C2OC(C)C(O)C2O)cc1F (stereo not drawn) | 35.6 µM | 42.6 | 58.7 | 56.3 | 36.3 | 55.5 | 39.3 | 50.8 µM | 43 µM | 33.1 µM | 43.8 | – | –
29 | COCc1cc2c(s1)C(=O)C1=C(C2=O)C2(C=C(Br)C(=O)C(Br)=C2)CCN1 | 16.3 µM | 16.7 | 12.4 | 30.6 | 17.9 | 7.68 | 3.11 | 3.57 µM | 19.3 µM | 27.9 µM | 9.2 | – | –
30 | Cc1cc(NC(=O)NC(=O)c2ccccc2NC(=O)CN(C)C)ccc1Oc1ncc(Br)cn1 | > 89.3 µM | > 63.8 | 39.7 | > 23.9 | > 100 | > 100 | 0.505 | > 100 µM | 16.2 µM | 37.2 µM | > 100 | – | –
31 | Cn1c2c(c3c(=O)[nH]ncc31)Cc1ccccc1-2 | 51 µM | > 100 | 54.3 | > 100 | 66.8 | 75.1 | 34.8 | > 100 µM | 25.7 µM | 34.9 µM | 78.2 | – | –
32 | CC(C)OC(=O)C(NC(=O)C(CC(=O)OCc1ccccc1)NC(=O)OCc1ccccc1)NC(=O)C1C(C)(C)CCC1(C)C (stereo not drawn) | 5.3 µM | > 41.2 | 9.27 | 23.5 | 34.9 | 11.6 | 24.2 | 14.2 µM | 31.1 µM | 11.5 µM | > 69.5 | – | –
33 | CC(=O)Oc1cc2c(cc1OCC(F)(F)F)[C@H]1CC[C@]3(C)[C@@H](OC(C)=O)CC[C@H]3[C@@H]1CC2=O | > 100 µM | 40.1 | 89.6 | 50.4 | 74.9 | > 78 | > 100 | 63.8 µM | 88.3 µM | 52.3 µM | > 89.1 | – | –
34 | COc1cccc2c(=O)oc(-c3ccccc3C)nc12 | > 100 µM | 73 | > 100 | > 100 | > 100 | 36.6 | 39.1 | 70.6 µM | 88.9 µM | > 100 µM | > 100 | – | –
35 | C[C@H]1CCC/C=C/[C@@H]2C[C@H](OC3OC(CO)C(O)C(O)C3O)C[C@H]2[C@H](O)/C=C/C(=O)O1 (stereo partly drawn) | > 100 µM | > 100 | 31.9 | > 100 | 98 | > 100 | > 100 | > 100 µM | > 100 µM | > 100 µM | > 100 | – | –
